Measured values reported in patent EP4745135A1 (Gluetacs Therapeutics (Shanghai) Co., Ltd., priority 2023, dated 2025).

Experiments:
[1] = target: T1, human Cereblon WT GST-tagged protein (Homo sapiens, UniProt Q96SW2); test: CRBN-binding affinity, HTRF (CEREBLON BINDING kit); conditions: for inhibition at 0.5 µM: read-out: Inhibition Rate at 0.5 µM (%); for inhibition at 2 µM: read-out: Inhibition Rate at 2 µM (%)
T1 construct: purchased CISBIO 64BDCRBNPEH

IKZF2 = target: T2, IKZF2 (Homo sapiens, UniProt Q96SW2+Q9UKS7); test: Western blot, degradation of substrate protein in hPBMCs; type: cell-based
T2 construct: effects of the compounds of the present disclosure on the expression of target proteins in cells; endogenous in cells; host or cells: human PBMCs (Milecell Biotechnologies)

WEE1 = target: T3, WEE1 (Homo sapiens, UniProt P30291+Q96SW2); test: as above; type: cell-based
T3 construct: effects of the compounds of the present disclosure on the expression of target proteins in cells; endogenous in cells; host or cells: human PBMCs (Milecell Biotechnologies)

CK1α = target: T4, CK1α (Homo sapiens, UniProt P48729+Q96SW2); test: as above; type: cell-based
T4 construct: effects of the compounds of the present disclosure on the expression of target proteins in cells; endogenous in cells; host or cells: human PBMCs (Milecell Biotechnologies)

IKZF3 = target: T5, IKZF3 (Homo sapiens, UniProt Q96SW2+Q9UKT9); test: as above; type: cell-based
T5 construct: effects of the compounds of the present disclosure on the expression of target proteins in cells; endogenous in cells; host or cells: human PBMCs (Milecell Biotechnologies)

IKZF1 = target: T6, IKZF1 (Homo sapiens, UniProt Q13422+Q96SW2); test: as above; type: cell-based
T6 construct: effects of the compounds of the present disclosure on the expression of target proteins in cells; endogenous in cells; host or cells: human PBMCs (Milecell Biotechnologies)

GSPT1 = test: as above; type: cell-based, Human
[2] = tested on: Human multiple myeloma cell (MM.1S); test: Tumor cell proliferation inhibition (CellTiter-Meiluncell luminescent cell viability assay); conditions: Homo sapiens, MM1.S, 96 h; for inhibition at 0.01 µM: read-out: Inhibition Rate at 10 nM (%); for inhibition at 0.5 µM: read-out: Inhibition Rate at 500 nM (%)
[3] = tested on: Human myeloid monocytic leukemia cell (MV-4-11); test: as above; conditions: MV4-11, 96 h; for inhibition at 0.01 µM: read-out: Inhibition Rate at 10 nM (%); for inhibition at 0.5 µM: read-out: Inhibition Rate at 500 nM (%)
[4] = tested on: Human acute T lymphocytic leukemia cell (Molt4); test: as above; conditions: MOLT-4, 96 h; for inhibition at 0.01 µM: read-out: Inhibition Rate at 10 nM (%); for inhibition at 0.5 µM: read-out: Inhibition Rate at 500 nM (%)
Description: The tumor cells used herein were cultured in a cell culture medium listed in table 2 at 37°C in an incubator with 5% CO2. Prior to experimentation, all cell lines used were correctly identified by STR profiling, and tested negative for mycoplasma contamination using a mycoplasma detection kit through routine screenings.
The IC50 values of the compounds of the present disclosure (including the compounds in Table 1 and Examples) were determined using the CellTiter-Meiluncell Luminescent Cell Viability Assay Kit from Dalian Meilun Biotech Co., Ltd. The detailed procedure is as follows: Tumor cells were seeded in 96-well cell culture plates at the densities specified in Table 3. On the following day, the test compounds of the present disclosure were subjected to serial dilution. The dilution can be performed according to one of the following two methods: • (1) The first dilution method: The test compounds of the present disclosure (including the compounds in Table 1 and Examples) were subjected to 5-fold serial dilutions starting from a highest concentration of 2000 µM, resulting in a total of 9 concentrations from high to low (2000, 400, 80, 16, 3.2, 0.64, 0.128, 0.0256, 0.00512 µM). Subsequently, 0.5 µL of the test compound dilution was transferred into the 96-well plate containing the cells, with each well containing 100 µL of cell culture medium. […] Into the 96-well plate, the diluted test compounds and corresponding detection reagents were added, resulting in final test compound concentrations of 500 nM and 10 nM, respectively. The experimental procedure is described below using the diluted 2 µM test compound as an example.
0.5 µL of the aforementioned diluted compound of the present disclosure (including the compounds in Table 1 and Examples) was added to the seeded cells in 100 µL of medium, yielding a final test compound concentration of 10 nM. After the cells were treated with the compounds of the present disclosure for a specified period, the cell viability assay reagent was added to the culture medium according to the kit's instructions to determine cell viability. […] All controls were treated using the same procedure as the compounds of the present disclosure. The growth inhibition curves for the compounds of the present disclosure were plotted using Prism GraphPad software, and the IC50 values were calculated therefrom.

[5] = Western blot, 24 hours of compound treatment, compounds tested at 50 nM and 500 nM (concentration for the table not stated)
[6] = 24 hours treatment, compounds at 50 nM and 500 nM (concentration behind the class not stated)

T3 sequence (P30291 whole entry): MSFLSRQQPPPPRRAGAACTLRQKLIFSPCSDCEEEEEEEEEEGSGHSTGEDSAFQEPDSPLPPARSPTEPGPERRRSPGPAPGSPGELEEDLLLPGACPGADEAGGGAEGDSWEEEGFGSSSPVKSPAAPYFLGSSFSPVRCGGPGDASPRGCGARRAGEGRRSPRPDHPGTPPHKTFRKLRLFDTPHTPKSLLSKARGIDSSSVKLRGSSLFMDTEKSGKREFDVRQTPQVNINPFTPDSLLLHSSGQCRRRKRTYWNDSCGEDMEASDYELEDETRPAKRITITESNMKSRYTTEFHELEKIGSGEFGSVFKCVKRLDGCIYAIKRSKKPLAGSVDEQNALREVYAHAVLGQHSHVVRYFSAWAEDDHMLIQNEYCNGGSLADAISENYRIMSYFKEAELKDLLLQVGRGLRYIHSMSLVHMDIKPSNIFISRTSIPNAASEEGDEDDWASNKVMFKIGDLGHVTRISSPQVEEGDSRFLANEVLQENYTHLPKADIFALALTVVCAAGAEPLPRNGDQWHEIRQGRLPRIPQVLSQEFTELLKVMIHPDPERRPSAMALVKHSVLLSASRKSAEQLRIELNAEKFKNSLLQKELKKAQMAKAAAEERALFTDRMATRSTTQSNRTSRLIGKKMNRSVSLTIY
T3 sequence (Q96SW2 whole entry): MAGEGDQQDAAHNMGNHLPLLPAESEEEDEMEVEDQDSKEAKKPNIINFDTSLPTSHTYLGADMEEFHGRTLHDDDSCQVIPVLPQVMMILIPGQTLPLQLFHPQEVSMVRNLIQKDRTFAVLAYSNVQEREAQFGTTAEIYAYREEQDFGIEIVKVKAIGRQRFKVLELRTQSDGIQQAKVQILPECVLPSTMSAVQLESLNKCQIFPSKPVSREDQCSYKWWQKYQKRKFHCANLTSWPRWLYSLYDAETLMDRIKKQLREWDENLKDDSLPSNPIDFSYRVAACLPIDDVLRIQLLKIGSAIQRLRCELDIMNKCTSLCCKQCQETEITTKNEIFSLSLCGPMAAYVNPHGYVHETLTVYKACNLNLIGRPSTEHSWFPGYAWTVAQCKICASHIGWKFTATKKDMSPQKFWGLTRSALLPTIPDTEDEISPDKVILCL
T3 sequence (Q16531 whole entry partner): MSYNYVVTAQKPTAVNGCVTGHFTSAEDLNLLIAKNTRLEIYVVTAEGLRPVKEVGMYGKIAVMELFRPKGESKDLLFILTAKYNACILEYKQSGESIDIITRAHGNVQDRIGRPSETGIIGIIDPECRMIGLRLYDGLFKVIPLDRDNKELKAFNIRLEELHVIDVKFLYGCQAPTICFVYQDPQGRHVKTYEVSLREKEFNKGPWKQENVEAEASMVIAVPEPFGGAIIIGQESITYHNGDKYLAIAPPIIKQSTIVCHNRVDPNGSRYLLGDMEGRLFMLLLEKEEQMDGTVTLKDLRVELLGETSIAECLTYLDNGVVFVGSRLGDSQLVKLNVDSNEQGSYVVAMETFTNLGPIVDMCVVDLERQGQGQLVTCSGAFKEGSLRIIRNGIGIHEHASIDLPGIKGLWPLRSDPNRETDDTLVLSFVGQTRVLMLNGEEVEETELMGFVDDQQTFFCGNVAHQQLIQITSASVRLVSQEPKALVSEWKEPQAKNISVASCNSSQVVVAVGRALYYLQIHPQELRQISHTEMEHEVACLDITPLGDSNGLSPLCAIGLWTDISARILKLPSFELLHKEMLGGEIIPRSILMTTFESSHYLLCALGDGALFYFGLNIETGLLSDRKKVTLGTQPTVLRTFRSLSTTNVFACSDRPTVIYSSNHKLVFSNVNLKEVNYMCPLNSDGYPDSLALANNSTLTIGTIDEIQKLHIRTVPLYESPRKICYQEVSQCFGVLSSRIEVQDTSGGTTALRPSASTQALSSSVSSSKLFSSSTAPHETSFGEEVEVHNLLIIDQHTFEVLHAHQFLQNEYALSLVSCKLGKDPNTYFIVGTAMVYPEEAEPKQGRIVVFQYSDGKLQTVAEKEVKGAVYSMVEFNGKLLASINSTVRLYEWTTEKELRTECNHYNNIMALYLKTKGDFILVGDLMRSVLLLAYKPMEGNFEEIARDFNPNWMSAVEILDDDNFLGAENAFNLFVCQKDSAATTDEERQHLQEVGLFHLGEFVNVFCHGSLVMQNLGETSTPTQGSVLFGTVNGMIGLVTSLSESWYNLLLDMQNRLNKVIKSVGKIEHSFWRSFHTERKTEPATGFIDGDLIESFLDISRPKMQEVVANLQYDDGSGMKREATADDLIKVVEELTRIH
T6 sequence (Q13422 whole entry): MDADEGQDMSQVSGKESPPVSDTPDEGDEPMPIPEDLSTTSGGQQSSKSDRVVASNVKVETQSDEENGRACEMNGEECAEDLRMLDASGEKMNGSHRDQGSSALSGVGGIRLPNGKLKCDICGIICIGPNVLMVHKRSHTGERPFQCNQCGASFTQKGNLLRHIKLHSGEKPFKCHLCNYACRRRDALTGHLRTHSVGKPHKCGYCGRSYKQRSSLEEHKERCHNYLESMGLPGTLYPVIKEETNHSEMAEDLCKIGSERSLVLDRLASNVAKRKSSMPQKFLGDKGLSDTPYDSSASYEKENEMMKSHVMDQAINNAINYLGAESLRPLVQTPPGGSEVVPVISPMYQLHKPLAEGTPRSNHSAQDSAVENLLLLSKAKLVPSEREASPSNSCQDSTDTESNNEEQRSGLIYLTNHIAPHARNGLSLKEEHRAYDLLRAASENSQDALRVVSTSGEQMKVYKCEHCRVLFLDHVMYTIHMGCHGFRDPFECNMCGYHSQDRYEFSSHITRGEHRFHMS
T6 sequence (Q96SW2 whole entry): as the sequence (Q96SW2 whole entry) above
T6 sequence (Q16531 whole entry partner): as the sequence (Q16531 whole entry partner) above
T1 sequence (Q96SW2 whole entry): as the sequence (Q96SW2 whole entry) above
T5 sequence (Q9UKT9 whole entry): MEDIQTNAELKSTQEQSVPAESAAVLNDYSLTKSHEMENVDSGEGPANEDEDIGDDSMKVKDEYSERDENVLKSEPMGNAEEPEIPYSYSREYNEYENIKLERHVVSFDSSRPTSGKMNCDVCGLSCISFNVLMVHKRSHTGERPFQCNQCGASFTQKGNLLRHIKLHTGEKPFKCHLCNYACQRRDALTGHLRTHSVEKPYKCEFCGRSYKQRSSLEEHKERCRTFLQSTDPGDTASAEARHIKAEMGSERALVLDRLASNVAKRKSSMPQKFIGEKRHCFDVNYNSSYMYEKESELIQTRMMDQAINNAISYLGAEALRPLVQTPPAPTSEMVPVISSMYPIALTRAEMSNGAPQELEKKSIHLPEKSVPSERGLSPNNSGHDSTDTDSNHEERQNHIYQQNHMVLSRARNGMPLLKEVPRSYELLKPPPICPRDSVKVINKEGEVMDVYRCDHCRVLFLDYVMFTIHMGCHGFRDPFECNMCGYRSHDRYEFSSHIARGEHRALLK
T5 sequence (Q96SW2 whole entry): as the sequence (Q96SW2 whole entry) above
T5 sequence (Q16531 whole entry partner): as the sequence (Q16531 whole entry partner) above
T2 sequence (Q9UKS7 whole entry): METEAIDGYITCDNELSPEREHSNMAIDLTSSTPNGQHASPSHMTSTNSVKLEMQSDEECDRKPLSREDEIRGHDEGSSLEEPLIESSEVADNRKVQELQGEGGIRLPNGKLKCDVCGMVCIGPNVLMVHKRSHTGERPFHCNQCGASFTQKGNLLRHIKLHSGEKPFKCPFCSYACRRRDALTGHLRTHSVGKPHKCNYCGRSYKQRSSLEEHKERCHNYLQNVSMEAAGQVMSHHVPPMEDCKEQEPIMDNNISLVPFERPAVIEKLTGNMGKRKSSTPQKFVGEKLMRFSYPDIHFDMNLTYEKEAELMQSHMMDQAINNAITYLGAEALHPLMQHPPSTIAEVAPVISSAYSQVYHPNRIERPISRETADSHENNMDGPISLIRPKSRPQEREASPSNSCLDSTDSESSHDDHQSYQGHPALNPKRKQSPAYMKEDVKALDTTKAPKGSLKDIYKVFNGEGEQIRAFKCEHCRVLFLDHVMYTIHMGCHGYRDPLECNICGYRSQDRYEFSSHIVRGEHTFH
T2 sequence (Q96SW2 whole entry): as the sequence (Q96SW2 whole entry) above
T2 sequence (Q16531 whole entry partner): as the sequence (Q16531 whole entry partner) above
T4 sequence (P48729 whole entry): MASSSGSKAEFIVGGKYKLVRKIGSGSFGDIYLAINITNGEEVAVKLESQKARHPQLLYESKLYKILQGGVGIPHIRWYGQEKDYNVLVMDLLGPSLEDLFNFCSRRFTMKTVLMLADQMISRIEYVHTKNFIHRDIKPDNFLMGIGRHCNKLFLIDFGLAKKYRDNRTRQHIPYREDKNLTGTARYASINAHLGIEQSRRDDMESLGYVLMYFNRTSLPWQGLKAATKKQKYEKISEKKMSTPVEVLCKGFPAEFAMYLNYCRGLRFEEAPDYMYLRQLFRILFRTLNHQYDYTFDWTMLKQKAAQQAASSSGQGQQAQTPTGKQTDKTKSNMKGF
T4 sequence (Q96SW2 whole entry): as the sequence (Q96SW2 whole entry) above
T4 sequence (Q16531 whole entry partner): as the sequence (Q16531 whole entry partner) above

SMILES	inhibition at 0.5 µM [1] [%]	inhibition at 2 µM [1] [%]	IKZF2 substrate protein remaining % (IKZF2; [5])	Wee1 substrate protein remaining % (WEE1; [5])	CK1α substrate protein remaining % (CK1α; [5])	IKZF3 substrate protein remaining % (IKZF3; [5])	IKZF 1 substrate protein remaining % (IKZF1; [5])	GSPT1 substrate protein remaining % (GSPT1; [5])	inhibition at 0.01 µM [2] [%]	inhibition at 0.5 µM [2] [%]	inhibition at 0.01 µM [3] [%]	inhibition at 0.5 µM [3] [%]	inhibition at 0.01 µM [4] [%]	inhibition at 0.5 µM [4] [%]	IKZF2 substrate protein remaining % (IKZF2; [6])	Wee1 substrate protein remaining % (WEE1; [6])	CK1α substrate protein remaining % (CK1α; [6])	IKZF3 substrate protein remaining % (IKZF3; [6])	IKZF 1 substrate protein remaining % (IKZF1; [6])	GSPT1 substrate protein remaining % (GSPT1; [6])
O=C1CCC(N2Cc3cc(CN4CCC(c5ccccc5C(F)(F)F)CC4)ccc3C2=S)C(=O)N1 (stereo not shown) [GT-08622, 3-(1-thioxo-5-((4-(2-(trifluoromethyl)phenyl)piperidin-1-yl)methyl)isoindolin-2-yl)piperidine-2,6-dione]	40 to 53	80 to 100	A (0% ≤ substrate protein remaining % ≤ 80%)	B (80%< substrate protein remaining %≤ 100%)	B (80%< substrate protein remaining %≤ 100%)	B (80%< substrate protein remaining %≤ 100%)	B (80%< substrate protein remaining %≤ 100%)	A (0% ≤ substrate protein remaining % ≤ 80%)	10 to 20	70 to 80	10 to 18	80 to 100	-5 to 0	80 to 100						
O=C1CCC(N2Cc3cc(CN4C5CCC4CN(c4cccc(Cl)c4Cl)C5)ccc3C2=S)C(=O)N1 (stereo not shown) [GT-08480, 3-(5-((3-(2,3-dichlorophenyl)-3,8-diazabicyclo[3.2.1]octan-8-yl)methyl)-1-thioxoisoindolin-2-yl)piperidine-2,6-dione]	40 to 53	80 to 100	B (80%< substrate protein remaining %≤ 100%)	B (80%< substrate protein remaining %≤ 100%)	B (80%< substrate protein remaining %≤ 100%)	B (80%< substrate protein remaining %≤ 100%)	B (80%< substrate protein remaining %≤ 100%)	A (0% ≤ substrate protein remaining % ≤ 80%)	20 to 30	80 to 100	25 to 30	80 to 100	0 to 5	80 to 100						
O=C1CCC(N2Cc3cc(CN4CCN(C(c5ccc(F)cc5)c5ccc(F)cc5)CC4)ccc3C2=S)C(=O)N1 (stereo not shown) [GT-07736, 3-(5-((4-(bis(4-fluorophenyl)methyl)piperazin-1-yl)methyl)-1-thioxoisoindolin-2-yl)piperidine-2,6-dione]	20 to 30	60 to 80	B (80%< substrate protein remaining %≤ 100%)	A (0% ≤ substrate protein remaining % ≤ 80%)	B (80%< substrate protein remaining %≤ 100%)	A (0% ≤ substrate protein remaining % ≤ 80%)	A (0% ≤ substrate protein remaining % ≤ 80%)	A (0% ≤ substrate protein remaining % ≤ 80%)	10 to 20	80 to 100	10 to 18	40 to 60	10 to 20	40 to 50						
O=C1CCC(N2Cc3cc(CN4CCC(c5ccccc5)CC4)ccc3C2=S)C(=O)N1 (stereo not shown) [GT-08616, 3-(5-((4-phenylpiperidin-1-yl)methyl)-1-thioxoisoindolin-2-yl)piperidine-2,6-dione]	53 to 60	80 to 100	B (80%< substrate protein remaining %≤ 100%)	B (80%< substrate protein remaining %≤ 100%)	B (80%< substrate protein remaining %≤ 100%)	B (80%< substrate protein remaining %≤ 100%)	B (80%< substrate protein remaining %≤ 100%)	A (0% ≤ substrate protein remaining % ≤ 80%)	20 to 30	50 to 60	-5 to 0	60 to 80	10 to 20	40 to 50						
O=C1CCC(N2Cc3cc(CN4CCN(c5nccc(Cl)c5Br)CC4)ccc3C2=S)C(=O)N1 (stereo not shown) [GT-09245, 3-(5-((4-(3-bromo-4-chloropyridin-2-yl)piperazin-1-yl)methyl)-1-thioxoisoindolin-2-yl)piperidine-2,6-dione]	60 to 80	80 to 100							40 to 50	70 to 80	60 to 80	80 to 100	10 to 20	50 to 60	A (0% ≤ substrate protein remaining % ≤ 80%)	B (80%< substrate protein remaining %≤ 100%)	B (80%< substrate protein remaining %≤ 100%)	B (80%< substrate protein remaining %≤ 100%)	A (0% ≤ substrate protein remaining % ≤ 80%)	A (0% ≤ substrate protein remaining % ≤ 80%)
Cc1ccc(N2CCN(Cc3ccc4c(c3)CN(C3CCC(=O)NC3=O)C4=S)CC2)cc1 (stereo not shown) [GT-08603, 3-(1-thioxo-5-((4-(p-tolyl)piperazin-1-yl)methyl)isoindolin-2-yl)piperidine-2,6-dione]	53 to 60	80 to 100	B (80%< substrate protein remaining %≤ 100%)	B (80%< substrate protein remaining %≤ 100%)	B (80%< substrate protein remaining %≤ 100%)	B (80%< substrate protein remaining %≤ 100%)	B (80%< substrate protein remaining %≤ 100%)	A (0% ≤ substrate protein remaining % ≤ 80%)	30 to 40	50 to 60	40 to 60	80 to 100	0 to 5	40 to 50						
O=C1CCC(N2Cc3cc(CN4CCN(c5cc(Cl)ccc5Cl)CC4)ccc3C2=S)C(=O)N1 (stereo not shown) [GT-08611, 3-(5-((4-(2,5-dichlorophenyl)piperazin-1-yl)methyl)-1-thioxoisoindolin-2-yl)piperidine-2,6-dione]	30 to 40	60 to 80	B (80%< substrate protein remaining %≤ 100%)	B (80%< substrate protein remaining %≤ 100%)	B (80%< substrate protein remaining %≤ 100%)	B (80%< substrate protein remaining %≤ 100%)	B (80%< substrate protein remaining %≤ 100%)	A (0% ≤ substrate protein remaining % ≤ 80%)	20 to 30	50 to 60	18 to 25	80 to 100	0 to 5	70 to 80						
O=C1CCC(N2Cc3cc(CN4CCC(c5n[nH]c6cc(F)ccc56)CC4)ccc3C2=S)C(=O)N1 (stereo not shown) [GT-09269, 3-(5-((4-(6-fluoro-1H-indazol-3-yl)piperidin-1-yl)methyl)-1-thioxoisoindolin-2-yl)piperidine-2,6-dione]	80 to 100	80 to 100							5 to 10	80 to 100	10 to 18	80 to 100	30 to 40	80 to 100	B (80%< substrate protein remaining %≤ 100%)	B (80%< substrate protein remaining %≤ 100%)	B (80%< substrate protein remaining %≤ 100%)	B (80%< substrate protein remaining %≤ 100%)	B (80%< substrate protein remaining %≤ 100%)	A (0% ≤ substrate protein remaining % ≤ 80%)
COc1ccccc1N1CCN(Cc2ccc3c(c2)CN(C2CCC(=O)NC2=O)C3=S)CC1 (stereo not shown) [GT-08236, 3-(5-((4-(2-methoxyphenyl)piperazin-1-yl)methyl)-1-thioxoisoindolin-2-yl)piperidine-2,6-dione]	40 to 53	80 to 100	B (80%< substrate protein remaining %≤ 100%)	B (80%< substrate protein remaining %≤ 100%)	B (80%< substrate protein remaining %≤ 100%)	B (80%< substrate protein remaining %≤ 100%)	B (80%< substrate protein remaining %≤ 100%)	A (0% ≤ substrate protein remaining % ≤ 80%)			10 to 18	60 to 80	10 to 20	40 to 50						
